Consider 4 compounds from patent publication US6440672B1, “Compositions and methods for the inhibition of MUC-5 mucin gene expression” (The Regents of the University of California, priority 1998, dated 2002).

Each structure is given as a SMILES string.

Assay [1] has as its system MUC 5AC 5' regulatory region (M4-2 luciferase reporter gene construct) in HM3 cells. The experiment in a line: Inhibition of smoke-induced luciferase activity in HM3 cells transfected with M4-2 reporter construct. Format: cell-based, human. An excerpt: A DNA fragment extending from −3752 bp to +68 bp was cloned into the MluI/Smal site of the pGL3 vector (Promega). pGL3 contains a luciferase gene downstream from the Smal site. This construct, referred to as M4-2, was deposited with the American Type Culture Collection as ATCC designation 98701. M4-2 was co-transfected with pcDNA3, containing the neomycin resistance gene, into the epithelial cell line HM3. G418-selected colonies were pooled, expanded, and used in luciferase assays.
HM3 colon carcinoma cells (Kuan, et al. (1987) Cancer Res. 47:5715-5724) or NCIH292 lung carcinoma cells (Levine, et al. (1995) Am. J Respir. Disease 12:196-204) were transfected with the 4.0 Kb MUC 5AC reporter gene construct, M4-2, or the −614 construct from Example 2. Transfection was carried out essentially as described in Felgner et al. (1987), supra. In brief, 2 μl lipofectamine and 1 μg DNA were added to, approximately 5×10^6 cells in 100 μl of Optimen (Gibco) and incubated at room, temperature for about 30 minutes. The mixture was then diluted to 1 ml and added to one culture well of a 6 well plate. G418-selected colonies were pooled, expanded and used in luciferase assays.
Environmental tobacco smoke was used as a mucomone. Culture medium DME-F 12 (Dulbecco's Modified Eagle's:Haam's F12 at 1:1) was exposed to tobacco smoke at various concentrations, for 6 hours. Exposure of the medium was carried out in open culture dishes in an enclosed container into which tobacco smoke produced by burning cigarettes was introduced in a controlled manner. Smoke concentration was measured in units of total suspended particles/ml (TSP/ml). Transfected cells were transferred into the smoke-exposed medium (in 6-well plates, 5×10^5 cells per well) and incubated for various times. The cells were then harvested, lysed and the luciferase activity determined as described in Li et al. (1997).
Several possible inhibitors of mucomone-induced mucin production were tested for their effect on the smoke induced luciferase activity described in Example 3. Inhibitors tested included the inhibitors Genistein (Calbiochem), anti-MEK (PD98059; Alessi et al. 1995), PKC-I (Bisindolymaleimide) and PKA-l (KT 5720, Calbiochem). HM3 cells transfected with the 4.0 KB MUC 5AC construct, M4-2, were incubated in smoke-exposed medium as described in Example 3. The inhibitors were added to the cells at the concentrations indicated in Table 2 for various times before the cells were transferred to the smoke medium. Additional inhibitor was added to the smoke medium after the cells were transferred.

The subject of assay [2] is MUC 2 gene transcription in epithelial cells. Conditions: epithelial cells pre-incubated with inhibitor; cited from earlier work.

Take `CN(C)CCCn1cc(C2=C(c3c[nH]c4ccccc34)C(=O)NC2=O)c2ccccc21` [Bisindolymaleimide]: the “relative luciferase activity (RLA) induced by smoke medium, with vs without inhibitor” value in assay [1] (Bisindolymaleimide 2.5 nM to 10 nM, added 1 hr before smoke medium) was “lower”.

For `COc1cccc(-c2cc(=O)c3ccccc3o2)c1N` [PD98059], the “relative luciferase activity (RLA) induced by smoke medium, with vs without inhibitor” value in assay [1] (PD98059 50-100 μM, added 1 hr before smoke medium) is listed as “lower”.

Regarding `CCCCCCOC(=O)[C@]1(O)C[C@@H]2O[C@@]1(C)n1c3ccccc3c3c4c(c5c6ccccc6n2c5c31)C(=O)NC4` [KT 5720], the “relative luciferase activity (RLA) induced by smoke medium, with vs without inhibitor” value in assay [1] (KT 5720 0.1 to 0.5 μM, added 15 min-1 hr before smoke medium) was “lower”.

On to `O=c1c(-c2ccc(O)cc2)coc2cc(O)cc(O)c12` [Genistein], for which the “relative luciferase activity (RLA) induced by smoke medium, with vs without inhibitor” value in assay [1] (Genistein 30 μM, added 30 min-2 hr before smoke medium) is “lower”. Also, the “effect of pre-incubation on the PA LPS-induced increase in MUC 2 transcription” value in assay [2] was “abolished the increase in transcription”.
